This assay deals with Min6 cell. Briefly: Insulin secretion response of beta cell line to formula I compounds (insulin ELISA). The format is cell-based. Conditions: rank according to % increase versus control at most effective dose. In a few lines: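 After compound or vehicle exposure, Min6 cells were held 2 h in glucose-free medium and preincubated 30 min at 37° C in glucose-free KRBH (pH 7.4, 0.1% BSA). They were then incubated 30 min at 37° C in KRBH with varying glucose. Secreted insulin and acid-ethanol-extracted intracellular insulin were measured by ELISA.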
In general terms: ELISA stands for enzyme-linked immunosorbent assay.

This note sets out measurements from US8765728B2, “[1,5]-diazocin derivatives” (MelliTech, priority 2009, dated 2014).

Turning to `COc1ccc2c(c1)CN(C1CC1)C(=O)CCN2C[C@H](O)COc1cccc(F)c1` [Compound 110, (S)-5-cyclopropyl-1-(3-(3-fluorophenoxy)-2-hydroxypropyl)-8-methoxy-2,3,5,6-tetrahydrobenzo[b][1,5]diazocin-4(1H)-one], the “Insulin secretion (Min6 cell) Range 1 to 5” value (from here on “Insulin secretion”) is listed as 1 (1: 90-110% of control).

Take `O=C(c1ccno1)N1CCC(=O)N(C2CC2)Cc2cc(OC(F)F)ccc21` [Compound 111, 5-cyclopropyl-8-(difluoromethoxy)-1-(isoxazole-5-carbonyl)-2,3,5,6-tetrahydrobenzo[b][1,5]diazocin-4(1H)-one]: the “Insulin secretion” value is reported as 1 (1: 90-110% of control).

As for `O=C(c1ncoc1-c1ccccc1)N1CCC(=O)N(C2CC2)Cc2cc(OC(F)F)ccc21` [Compound 112, 5-cyclopropyl-8-(difluoromethoxy)-1-(5-phenyloxazole-4-carbonyl)-2,3,5,6-tetrahydrobenzo[b][1,5]diazocin-4(1H)-one], the “Insulin secretion” value was 1 (1: 90-110% of control).

As to `Cc1cc(C(=O)N2CCC(=O)N(C3CC3)Cc3cc(OC(F)F)ccc32)no1` [Compound 113, 5-cyclopropyl-8-(difluoromethoxy)-1-(5-methylisoxazole-3-carbonyl)-2,3,5,6-tetrahydrobenzo[b][1,5]diazocin-4(1H)-one], the “Insulin secretion” value was 1 (1: 90-110% of control).

As to `Cc1cc(C(=O)N2CCC(=O)N(C3CC3)Cc3cc(OC(F)F)ccc32)n(C)n1` [Compound 114, 5-cyclopropyl-8-(difluoromethoxy)-1-(1,3-dimethyl-1H-pyrazole-5-carbonyl)-2,3,5,6-tetrahydrobenzo[b][1,5]diazocin-4(1H)-one], the “Insulin secretion” value was 1 (1: 90-110% of control).

Take `Cc1noc(C)c1C(=O)N1CCC(=O)N(C2CC2)Cc2cc(OC(F)F)ccc21` [Compound 115, 5-cyclopropyl-8-(difluoromethoxy)-1-(3,5-dimethylisoxazole-4-carbonyl)-2,3,5,6-tetrahydrobenzo[b][1,5]diazocin-4(1H)-one]: the “Insulin secretion” value is listed as 1 (1: 90-110% of control).

For the compound `O=C(c1cnccn1)N1CCC(=O)N(C2CC2)Cc2cc(OC(F)F)ccc21` [Compound 116, 5-cyclopropyl-8-(difluoromethoxy)-1-(pyrazine-2-carbonyl)-2,3,5,6-tetrahydrobenzo[b][1,5]diazocin-4(1H)-one], the “Insulin secretion” value is given as 2 (2: 110-120% of control).

`O=C1CCN(C[C@@H](O)COc2cccc(F)c2)c2ccc(OC(F)F)cc2CN1C1CC1` [Compound 117, (R)-5-cyclopropyl-8-(difluoromethoxy)-1-(3-(3-fluorophenoxy)-2-hydroxypropyl)-2,3,5,6-tetrahydrobenzo[b][1,5]diazocin-4(1H)-one]: the “Insulin secretion” value was 1 (1: 90-110% of control).

With `O=C1CCN(C[C@H](O)COc2cccc(F)c2)c2ccc(OC(F)F)cc2CN1C1CC1` [Compound 118, (S)-5-cyclopropyl-8-(difluoromethoxy)-1-(3-(3-fluorophenoxy)-2-hydroxypropyl)-2,3,5,6-tetrahydrobenzo[b][1,5]diazocin-4(1H)-one], the “Insulin secretion” value is recorded as 2 (2: 110-120% of control).

As to `O=C1CCN(C[C@@H](O)COc2ccc(Cl)cc2)c2ccc(OC(F)F)cc2CN1C1CC1` [Compound 119, (R)-1-(3-(4-chlorophenoxy)-2-hydroxypropyl)-5-cyclopropyl-8-(difluoromethoxy)-2,3,5,6-tetrahydrobenzo[b][1,5]diazocin-4(1H)-one], the “Insulin secretion” value is 3 (3: 120-140% of control).

Regarding `O=C1CCN(C[C@H](O)COc2ccc(Cl)cc2)c2ccc(OC(F)F)cc2CN1C1CC1` [Compound 120, (S)-1-(3-(4-chlorophenoxy)-2-hydroxypropyl)-5-cyclopropyl-8-(difluoromethoxy)-2,3,5,6-tetrahydrobenzo[b][1,5]diazocin-4(1H)-one], the “Insulin secretion” value was 1 (1: 90-110% of control).

With `COCC(=O)N1CCC(=O)N(C2CC2)Cc2cc(F)ccc21` [Compound 121, 5-cyclopropyl-8-fluoro-1-(2-methoxyacetyl)-2,3,5,6-tetrahydrobenzo[b][1,5]diazocin-4(1H)-one], the “Insulin secretion” value was 1 (1: 90-110% of control).

With `O=C(COc1ccccc1)N1CCC(=O)N(C2CC2)Cc2cc(F)ccc21` [Compound 122, 5-cyclopropyl-8-fluoro-1-(2-phenoxyacetyl)-2,3,5,6-tetrahydrobenzo[b][1,5]diazocin-4(1H)-one], the “Insulin secretion” value is given as 1 (1: 90-110% of control).

Regarding `O=C(c1ccco1)N1CCC(=O)N(C2CC2)Cc2cc(F)ccc21` [Compound 123, 5-cyclopropyl-8-fluoro-1-(furan-2-carbonyl)-2,3,5,6-tetrahydrobenzo[b][1,5]diazocin-4(1H)-one], the “Insulin secretion” value is 1 (1: 90-110% of control).

As for `O=C1CCNc2ccc(OC(F)F)cc2CN1C1CC1` [Compound 124, 5-cyclopropyl-8-(difluoromethoxy)-2,3,5,6-tetrahydrobenzo[b][1,5]diazocin-4(1H)-one], the “Insulin secretion” value is recorded as 1 (1: 90-110% of control).

As for `Cn1cnc(S(=O)(=O)N2CCC(=O)N(C3CC3)Cc3c2ccc2c3OCCO2)c1` [Compound 125, 11-cyclopropyl-7-((1-methyl-1H-imidazol-4-yl)sulfonyl)-2,3,8,9,11,12-hexahydro-[1,4]dioxino[2′,3′:3,4]benzo[1,2-b][1,5]diazocin-10(7H)-one], the “Insulin secretion” value was 1 (1: 90-110% of control).

In the case of `O=C1CCN(C[C@@H](O)COc2ccc(Cl)cc2)c2ccc3c(c2CN1C1CC1)OCCO3` [Compound 126, (R)-7-(3-(4-chlorophenoxy)-2-hydroxypropyl)-11-cyclopropyl-2,3,8,9,11,12-hexahydro-[1,4]dioxino[2′,3′:3,4]benzo[1,2-b][1,5]diazocin-10(7H)-one], the “Insulin secretion” value was 2 (2: 110-120% of control).

As for `COc1ccc2c(c1OC(F)F)CN(C1CC1)C(=O)CCN2` [Compound 127, 5-cyclopropyl-7-(difluoromethoxy)-8-methoxy-2,3,5,6-tetrahydrobenzo[b][1,5]diazocin-4(1H)-one], the “Insulin secretion” value was 1 (1: 90-110% of control).

As to `O=C(c1cnccn1)N1CCC(=O)N(C2CC2)Cc2c1ccc1c2OCCO1` [Compound 128, 11-cyclopropyl-7-(pyrazine-2-carbonyl)-2,3,8,9,11,12-hexahydro-[1,4]dioxino[2′,3′:3,4]benzo[1,2-b][1,5]diazocin-10(7H)-one], the “Insulin secretion” value is given as 1 (1: 90-110% of control).

On to `COc1ccc2c(c1OC(F)F)CN(C1CC1)C(=O)CCN2C(=O)c1cnccn1` [Compound 129, 5-cyclopropyl-7-(difluoromethoxy)-8-methoxy-1-(pyrazine-2-carbonyl)-2,3,5,6-tetrahydrobenzo[b][1,5]diazocin-4(1H)-one], for which the “Insulin secretion” value is 2 (2: 110-120% of control).

For the compound `O=C(c1cnccn1)N1CCC(=O)N(C2CC2)Cc2cc(F)ccc21` [Compound 130, 5-cyclopropyl-8-fluoro-1-(pyrazine-2-carbonyl)-2,3,5,6-tetrahydrobenzo[b][1,5]diazocin-4(1H)-one], the “Insulin secretion” value was 1 (1: 90-110% of control).

Take `O=C(c1ccccn1)N1CCC(=O)N(C2CC2)Cc2cc(Cl)ccc21` [Compound 131, 8-chloro-5-cyclopropyl-1-picolinoyl-2,3,5,6-tetrahydrobenzo[b][1,5]diazocin-4(1H)-one]: the “Insulin secretion” value is listed as 1 (1: 90-110% of control).

Regarding `O=C(c1ccccn1)N1CCC(=O)N(C2CC2)Cc2c1ccc1c2OCCO1` [Compound 132, 11-cyclopropyl-7-picolinoyl-2,3,8,9,11,12-hexahydro-[1,4]dioxino[2′,3′:3,4]benzo[1,2-b][1,5]diazocin-10(7H)-one], the “Insulin secretion” value is listed as 1 (1: 90-110% of control).

Consider `O=C(c1cnccn1)N1CCC(=O)N(C2CC2)Cc2cc(Cl)ccc21` [Compound 133, 8-chloro-5-cyclopropyl-1-(pyrazine-2-carbonyl)-2,3,5,6-tetrahydrobenzo[b][1,5]diazocin-4(1H)-one], for which the “Insulin secretion” value is 2 (2: 110-120% of control).

Regarding `COc1ccc2c(c1OC(F)F)CN(C1CC1)C(=O)CCN2C[C@@H](O)COc1ccc(Cl)cc1` [Compound 134, (R)-1-(3-(4-chlorophenoxy)-2-hydroxypropyl)-5-cyclopropyl-7-(difluoromethoxy)-8-methoxy-2,3,5,6-tetrahydrobenzo[b][1,5]diazocin-4(1H)-one], the “Insulin secretion” value is listed as 1 (1: 90-110% of control).

As to `O=C1CCN(C[C@@H](O)COc2ccc(Cl)cc2)c2ccc(Cl)cc2CN1C1CC1` [Compound 135, (R)-8-chloro-1-(3-(4-chlorophenoxy)-2-hydroxypropyl)-5-cyclopropyl-2,3,5,6-tetrahydrobenzo[b][1,5]diazocin-4(1H)-one], the “Insulin secretion” value was 1 (1: 90-110% of control).

In the case of `CS(=O)(=O)c1ccc(OC[C@H](O)CN2CCC(=O)N(C3CC3)Cc3cc(F)ccc32)cc1` [Compound 136, (R)-5-cyclopropyl-8-fluoro-1-(2-hydroxy-3-(4-(methylsulfonyl)phenoxy)propyl)-2,3,5,6-tetrahydrobenzo[b][1,5]diazocin-4(1H)-one], the “Insulin secretion” value is on record as 1 (1: 90-110% of control).

For `CS(=O)(=O)c1ccc(OC[C@H](O)CN2CCC(=O)N(C3CC3)Cc3cc(Cl)ccc32)cc1` [Compound 137, (R)-8-chloro-5-cyclopropyl-1-(2-hydroxy-3-(4-(methylsulfonyl)phenoxy)propyl)-2,3,5,6-tetrahydrobenzo[b][1,5]diazocin-4(1H)-one], the “Insulin secretion” value was 2 (2: 110-120% of control).

With `Cc1cc(C(=O)N2CCC(=O)N(C3CC3)Cc3c2ccc2c3OCCO2)on1` [Compound 138, 11-cyclopropyl-7-(3-methylisoxazole-5-carbonyl)-2,3,8,9,11,12-hexahydro-[1,4]dioxino[2′,3′:3,4]benzo[1,2-b][1,5]diazocin-10(7H)-one], the “Insulin secretion” value is 1 (1: 90-110% of control).
